According to patent US12344610B2, “APOL1 inhibitors and methods of use” (Maze Therapeutics, Inc., priority 2022, dated 2025):

Assays:
[1] = system: Trypanosoma brucei Lister 427 VSG221 with APOL1 G0 recombinant protein; assay: APOL1 G0 trypanosome cell rescue assay (Example B5); format: cell-based; conditions: Trypanosoma brucei, 20 h, read-out: APOL1 G0 Trypanosome Rescue EC50, Trypanosoma brucei Lister 427 VSG221 with APOL1 G0 recombinant protein, 20 hours, CellTiter-Glo; geometric mean of at least 2 assay runs; † = single assay run
Outline: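 Compounds in duplicate 2-fold, 11-point series with 0.4% DMSO final. Next, tag-free mature APOL1 variant protein went in from a 2 μg/mL solution, then trypanosomes to 250 per well. Plates incubated 20 h humidified at 37° C, equilibrated to room temperature, and CellTiter-Glo added for luminescence.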

[2] = system: HEK293 cells overexpressing APOL1 G2; assay: APOL1 G2 HEK293 cell rescue assay (reversal of cell death caused by overexpression of APOL1); format: cell-based; conditions: Homo sapiens, HEK293, HEK293 overexpressing APOL1 G2; geometric mean of at least 2 assay runs; † = single assay run
Outline: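 EC50 is the half-maximal effective concentration for reversing cell death driven by APOL1 G2 overexpression in HEK293 cells. Reported as geometric mean of at least 2 runs on separate days, each run averaging duplicate wells per plate; some values from a single run.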

Structure (SMILES): CC(C)N1C(=O)CCc2cc(OCCN3CCC4(CC3)C(=O)Nc3ccc(Cl)cc34)ccc21 [Compound 97, 5-chloro-1′-(2-{[2-oxo-1-(propan-2-yl)-1,2,3,4-tetrahydroquinolin-6-yl]oxy}ethyl)-1,2-dihydrospiro[indole-3,4′-piperidin]-2-one]
- EC50 [1]: 99 nM
- EC50 [2]: 44.6 nM

Structure (SMILES): CS(=O)(=O)c1c(F)cc(OCCN2CCC3(CC2)C(=O)Nc2ccc(C#N)cc23)cc1F [Compound 90, 1′-[2-(3,5-difluoro-4-methanesulfonylphenoxy)ethyl]-2-oxo-1,2-dihydrospiro[indole-3,4′-piperidine]-5-carbonitrile]
- EC50 [1]: 546 nM
- EC50 [2]: 151 nM
